Reference: US9199949B2, “Selective glycosidase inhibitors and uses thereof” (Alectos Therapeutics Inc., priority 2011, dated 2015)

Key:
[1] = Assay for determination of apparent permeability (Papp) in LLC-PK1 cells; type: in vitro ADME; details: pig, t=3 h, average of A to B and B to A
Protocol: Bi-directional transport was evaluated in LLC-PK1 cells in order to determine apparent permeability (Papp). LLC-PK1 cells can form a tight monolayer and therefore can be used to assess vectorial transport of compounds from basolateral to apical (B→A) and from apical to basolateral (A→B).
To determine Papp, LLC-PK1 cells were cultured in 96-well transwell culture plates (Millipore). Solutions containing the test compounds (1 μM) were prepared in Hank's Balanced Salt Solution with 10 mM HEPES. Substrate solution (150 μL) was added to either the apical (A) or the basolateral (B) compartment of the culture plate, and buffer (150 μL) was added to the compartment opposite to that containing the compound. At t=3 h, 50 μL samples were removed from both sides of monolayers dosed with test compound and placed in 96 well plates, scintillant (200 μL) or internal standard (100 μL labetolol 1 μM) was added to the samples and concentration was determined by liquid scintillation counting in a MicroBeta Wallac Trilux scintillation counter (Perkin Elmer Life Sciences, Boston, Mass.) or by LCMS/MS (Applied Biosystems SCIEX API 5000 triple quadruple mass spectrometer). [^3H]Verapamil (1 μM) was used as the positive control. The experiment was performed in triplicate.
[formula] Where: Volume of Receptor Chamber was 0.15 mL; Area of membrane was 0.11 cm^2; the Initial Concentration is the sum of the concentration measured in the donor plus concentration measured in receiver compartments at t=3 h; Δ in Concentration is concentration in the receiver compartment at 3 h; and Δ in Time is the incubation time (3×60×60=10800 s). Papp was expressed as 10^−6 cm/s.

O-GlcNAcase = O-GlcNAcase (Rattus norvegicus (Rat), UniProt Q8VIJ5); assay: Cell-based ELISA for cellular activity of O-GlcNAcase inhibitors (O-GlcNAcylated protein, RL-2 antibody); details: rat PC-12 cells, 24 h treatment, O-GlcNAcylated protein by RL-2 ELISA
Sequence of O-GlcNAcase (Q8VIJ5 whole entry): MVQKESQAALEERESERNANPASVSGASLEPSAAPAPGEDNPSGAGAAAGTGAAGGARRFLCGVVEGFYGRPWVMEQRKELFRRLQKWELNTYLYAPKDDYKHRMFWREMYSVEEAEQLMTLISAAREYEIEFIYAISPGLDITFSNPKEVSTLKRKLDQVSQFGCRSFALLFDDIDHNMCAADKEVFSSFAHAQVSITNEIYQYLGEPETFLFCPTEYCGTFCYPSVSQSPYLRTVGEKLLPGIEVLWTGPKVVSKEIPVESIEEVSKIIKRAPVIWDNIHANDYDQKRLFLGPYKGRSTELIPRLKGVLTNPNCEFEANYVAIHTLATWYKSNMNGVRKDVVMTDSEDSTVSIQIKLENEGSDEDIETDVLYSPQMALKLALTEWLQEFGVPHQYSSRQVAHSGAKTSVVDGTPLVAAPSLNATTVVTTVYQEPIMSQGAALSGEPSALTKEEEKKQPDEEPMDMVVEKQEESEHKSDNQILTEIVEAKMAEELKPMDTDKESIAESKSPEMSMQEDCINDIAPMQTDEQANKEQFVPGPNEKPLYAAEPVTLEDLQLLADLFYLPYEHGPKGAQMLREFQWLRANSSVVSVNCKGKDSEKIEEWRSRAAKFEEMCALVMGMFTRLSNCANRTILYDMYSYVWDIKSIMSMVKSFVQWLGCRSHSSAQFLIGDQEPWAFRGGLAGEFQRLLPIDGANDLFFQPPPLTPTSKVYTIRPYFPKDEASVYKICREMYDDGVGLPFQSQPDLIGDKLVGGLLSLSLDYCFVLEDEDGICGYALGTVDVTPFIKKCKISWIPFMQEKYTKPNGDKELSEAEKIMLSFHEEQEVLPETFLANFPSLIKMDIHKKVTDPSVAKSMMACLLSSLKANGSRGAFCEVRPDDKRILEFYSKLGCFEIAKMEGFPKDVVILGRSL
Protocol: Inhibition of O-GlcNAcase, which removes O-GlcNAc from cellular proteins, results in an increase in the level of O-GlcNAcylated protein in cells. An increase in O-GlcNAcylated protein can be measured by an antibody, such as RL-2, that binds to O-GlcNAcylated protein. The amount of O-GlcNAcylated protein:RL2 antibody interaction can be measured by enzyme linked immunosorbant assay (ELISA) procedures.
Compounds to be tested were dissolved in DMSO, either 2 or 10 mM stock solution, and then diluted with DMSO and water in a two-step process using a Tecan workstation. […] To prepare a cell lysate, the media from compound treated cells was removed, the cells were washed once with phosphate buffered saline (PBS) and then lysed for 5 minutes at room temperature in 50 μL of Phosphosafe reagent (Novagen Inc, Madison, Wis.) with protease inhibitors and PMSF. The cell lysate was collected and transferred to a new plate, which was then either coated to assay plates directly or frozen −80° C. until used in the ELISA procedure. If desired, the total protein concentration of samples was determined using 20 μL of the sample using the BCA method.
The ELISA portion of the assay was performed in a black Maxisorp 96-well plate that was coated overnight at 4° C. with 100 μL/well of the cell lysate (1:10 dilution of the lysate with PBS containing protease inhibitors, phosphatase inhibitors, and PMSF). The following day the wells were washed 3 times with 300 μL/well of Wash buffer (Tris-buffered saline with 0.1% Tween 20).
The amount of O-GlcNAcylated protein, as detected by the ELISA assay, was plotted for each concentration of test compound using standard curve fitting algorithms for sigmoidal dose response curves. The values for a four parameter logistic curve fit of the data were determined, with the inflection point of the curve being the potency value for the test compound.

human O-GlcNAcase = human O-GlcNAcase (Homo sapiens (Human), UniProt O60502); assay: Assay for determination of KI values for inhibition of O-GlcNAcase activity (fluorescence-based hOGA); type: biochemical; details: purified human O-GlcNAcase, 4-Methylumbelliferyl N-acetyl-β-D-glucosaminide substrate, pH 7.0, Cheng-Prusoff
Sequence of human O-GlcNAcase (O60502 whole entry): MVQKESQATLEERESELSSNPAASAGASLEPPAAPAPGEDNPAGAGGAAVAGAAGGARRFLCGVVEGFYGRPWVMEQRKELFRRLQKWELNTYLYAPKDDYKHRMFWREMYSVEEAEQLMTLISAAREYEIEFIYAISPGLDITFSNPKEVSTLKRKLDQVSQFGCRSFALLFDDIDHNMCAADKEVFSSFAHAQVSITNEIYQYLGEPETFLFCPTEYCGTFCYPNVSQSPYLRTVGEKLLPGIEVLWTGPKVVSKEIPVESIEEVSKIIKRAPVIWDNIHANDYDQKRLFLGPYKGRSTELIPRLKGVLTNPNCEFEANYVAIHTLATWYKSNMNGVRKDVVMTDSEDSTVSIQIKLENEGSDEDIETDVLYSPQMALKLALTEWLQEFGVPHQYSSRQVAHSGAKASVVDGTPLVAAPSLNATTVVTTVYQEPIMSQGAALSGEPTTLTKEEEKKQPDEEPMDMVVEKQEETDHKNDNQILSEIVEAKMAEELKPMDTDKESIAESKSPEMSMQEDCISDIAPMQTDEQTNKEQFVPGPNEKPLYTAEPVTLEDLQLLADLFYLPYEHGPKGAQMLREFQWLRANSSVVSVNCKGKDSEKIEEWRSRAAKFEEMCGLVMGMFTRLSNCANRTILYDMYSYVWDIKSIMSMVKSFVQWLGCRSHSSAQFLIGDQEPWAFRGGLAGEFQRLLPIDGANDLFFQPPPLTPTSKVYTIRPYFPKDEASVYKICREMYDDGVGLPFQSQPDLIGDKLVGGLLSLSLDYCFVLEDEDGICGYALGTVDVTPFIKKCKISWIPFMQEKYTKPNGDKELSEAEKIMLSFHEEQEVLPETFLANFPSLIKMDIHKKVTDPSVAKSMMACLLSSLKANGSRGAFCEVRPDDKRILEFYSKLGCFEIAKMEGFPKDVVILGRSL
Protocol: Experimental Procedure for Kinetic Analyses: Enzymatic reactions were carried out in a reaction containing 50 mM NaH2PO4, 100 mM NaCl and 0.1% BSA (pH 7.0) using 2 mM 4-Methylumbelliferyl N-acetyl-β-D-glucosaminide dihydrate (Sigma M2133) dissolved in ddH2O, as a substrate. The amount of purified human O-GlcNAcase enzyme used in the reaction was 0.7 nM. Test compound of varying concentrations was added to the enzyme prior to initiation of the reaction. The reaction was performed at room temperature in a 96-well plate and was initiated with the addition of substrate. […] The slope of product production was determined for each concentration of compound tested and plotted, using standard curve fitting algorithms for sigmoidal dose response curves. The values for a four parameter logistic curve fit of the data were determined.

Structure (SMILES): CNC1=N[C@@H]2[C@@H](O)[C@H](O)[C@@H](CF)C[C@@H]2O1 [Example 2, (3aR,4R,5R,6S,7aS)-6-(fluoromethyl)-2-(methylamino)-3a,4,5,6,7,7a-hexahydrobenzo[d]oxazole-4,5-diol]
- Papp at 3 h, 1 μM [1]: 6.5 ×10⁻⁶ cm/s

Structure (SMILES): O[C@@H]1[C@@H](CF)C[C@@H]2OC(N3CCC3)=N[C@@H]2[C@H]1O [Example 4, (3aR,4R,5R,6S,7aS)-2-(azetidin-1-yl)-6-(fluoromethyl)-3a,4,5,6,7,7a-hexahydrobenzo[d]oxazole-4,5-diol]
- EC50 (O-GlcNAcase): 5.2 nM
- Papp at 3 h, 1 μM [1]: 5.1 ×10⁻⁶ cm/s
- Ki (human O-GlcNAcase): 1.1 nM

Structure (SMILES): O[C@H]1[C@H](O)[C@@H](C(F)F)C[C@@H]2OC(N3CCC3)=N[C@H]12 [Example 6, (3aR,4R,5R,6S,7aS)-2-(azetidin-1-yl)-6-(difluoromethyl)-3a,4,5,6,7,7a-hexahydrobenzo[d]oxazole-4,5-diol]
- EC50 (O-GlcNAcase): 5.1 nM
- Papp at 3 h, 1 μM [1]: 2.8 ×10⁻⁶ cm/s
- Ki (human O-GlcNAcase): 0.7 nM

Structure (SMILES): CNC1=N[C@@H]2[C@@H](O)[C@H](O)[C@@H](C(F)F)C[C@@H]2O1 [Example 8, (3aR,4R,5R,6S,7aS)-6-(difluoromethyl)-2-(methylamino)-3a,4,5,6,7,7a-hexahydrobenzo[d]oxazole-4,5-diol]
- EC50 (O-GlcNAcase): 4.7 nM
- Papp at 3 h, 1 μM [1]: 2.7 ×10⁻⁶ cm/s
- Ki (human O-GlcNAcase): 1.4 nM

Structure (SMILES): OC[C@H]1C[C@@H]2OC(N3CCC3)=N[C@@H]2[C@H](F)[C@@H]1O [Example 10, (3aS,4S,5R,6R,7aS)-2-(azetidin-1-yl)-4-fluoro-6-(hydroxymethyl)-3a,4,5,6,7,7a-hexahydrobenzo[d]oxazol-5-ol]
- Ki (human O-GlcNAcase): 7 nM

Structure (SMILES): CNC1=N[C@@H]2[C@H](F)[C@H](O)[C@@H](CO)C[C@@H]2O1 [Example 12, (3aS,4S,5R,6R,7aS)-4-fluoro-6-(hydroxymethyl)-2-(methylamino)-3a,4,5,6,7,7a-hexahydrobenzo[d]oxazol-5-ol]
- Papp at 3 h, 1 μM [1]: 2.2 ×10⁻⁶ cm/s
- Ki (human O-GlcNAcase): 8.6 nM

Structure (SMILES): O[C@H]1[C@@H](F)[C@H]2N=C(N3CCC3)O[C@H]2C[C@@H]1C(F)F [Example 15, (3aS,4S,5R,6S,7aS)-2-(azetidin-1-yl)-6-(difluoromethyl)-4-fluoro-3a,4,5,6,7,7a-hexahydrobenzo[d]oxazol-5-ol]
- Papp at 3 h, 1 μM [1]: 6.5 ×10⁻⁶ cm/s
- Ki (human O-GlcNAcase): 20.5 nM
